According to US5116829A, “Steroid compounds” (Kao Corporation, priority 1990, dated 1992):
Like-named read-outs stand apart in the source and are kept apart here.

How the values were obtained:
[1] = Acute toxicity (oral administration); parameters: species or system ICR mice (male); conditions: mouse, in vivo, 14 days after administration, read-out: Viability (%)
Procedure: Acute toxicity (oral administration) of the compound of the present invention was evaluated according to the following method. […]

edema of rat auricle = assay: Anti-inflammatory activity (1): croton oil-induced auricle edema; type: in vivo, Wistar male rats; conditions: 10^-3 M, 800 μl/auricle, 15 seconds, weighed after 6 hours, read-out: Edema inhibitory rate (%)
Procedure: Test Method of Anti-inflammatory Activity (1) […] Wistar male rats, age 5 weeks, each group consisting of 5, were served for the test. The test samples and an inflammation-inducingbase material (control) were infiltrated into circular […]) fixed onto specially prepared tweezers and the right auricles of the animals were put between the tweezers to apply the samples (800 μl/auricle) for 15 seconds at a constant pressure of 500 gw. After 6 hours, the both auricles were punched (.phi. 9 mm) and weighed. An edema inhibitory rate determined by the following equation was taken as an index of the anti-inflammatory activity of the steroid samples. Edema inhibitory rate (%)=100-Y/Z×100 wherein Y is the weight difference (mg) of the right auricle to which the sample drug was applied and the untreated left auricle, and Z is the weight difference (mg) of the right auricle of the rat to which the inflammation-inducing base material was applied and the untreated left auricle.

granuloma = assay: Anti-inflammatory activity (2): granuloma around embedded filter paper; type: in vivo, Wistar male rats; conditions: 10^-2 M, 50 μl/paper, after 6 days; for inhibition at 10000 µM: Rattus norvegicus, 144 h, read-out: Granulating Inhibitory Rate (%)
Source text: Test Method of Anti-inflammatory Activity (2) Wistar male rats, age 5 weeks, each group consisting of 5-8 rats, were served for the test. […] The paper was embedded into the right back of the rats. Into the left back was embedded an untreated antibiotic test filter paper. After 6 days, the animals were sacrificed by bleeding and the backs were incised to extract each granuloma formed around the filter. The granuloma was dried and weighed. To the right backs of the control group antibiotic test filter papers infiltrated with 50 μl/paper of ethanol and dried were embedded.

[2] = test system: eosinophiles infiltration; assay: Anti-allergic activity: FMLP-induced eosinophiles infiltration in trachea; type: in vivo, guinea pigs (male); conditions: positive control; after 4 hours (so in the source)
Procedure: Test Method of Anti-allergic Activity
To tracheas around the neck of guinea pigs (male; weight 200-300 gm) exposed under anesthesia with Nembutal (0.05 ml/animal, i.p.) were injected FMLP (10^-4 M), which is an inflammation-inducing compound, dissolved in 1% dimethylsulfoxide solution in physiological saline, individually o together with the test compound with a 26 guage needle. For the negative control, only dimethylsulfoxide was injected, and for the positive control betamethasone was administered. […] Eosinophiles infiltrated into the upper, middle, and lower parts of the trachea were counted by microscope. Numbers of eosinophiles found in tracheas to which the test compound was injected were compared with those to which FMLP was independently injected.

thymus = assay: Systemic side effects: thymus weight; type: in vivo, ddY male mice; conditions: 2 mM in peanut oil, s.c., two times at 24 hour interval; Means ± S.E.
Procedure: Systemic side effects of the compound of the present invention were evaluated according to the following method.
Suspensions of the test compounds (2 mM) in peanut oil were subcutaneously injected into the back of ddY male mice (weight: about 30 gm), 10 mice consisting of a test group, two times, once a day at a 24 hour interval. After 24 hours from the last injection, the mice were sacrificed to extract the thymus and to weigh its weight. For the control group only peanut oil was administered. The results are shown in […]

| SMILES | survival at 336 h ([1]; dose 1.7 (mg/kg)) [%] | survival at 336 h ([1]; dose 3.3 (mg/kg)) [%] | survival at 336 h ([1]; dose 5 (mg/kg)) [%] | inhibition at 1000 µM (edema of rat auricle) [%] | Dry weight of ganuloma (granuloma) [mg] | inhibition at 10000 µM (granuloma) [%] | eosinophiles infiltration inhibitory effect [2] | Thymus weight/10 gm body weight (thymus) [mg] |
| --- | --- | --- | --- | --- | --- | --- | --- | --- |
| CCCCC(=O)O[C@]1(C(=O)CO)[C@@H](C)C[C@H]2[C@@H]3CCC4=CC(=O)C=C[C@]4(C)[C@@]3(F)[C@@H](O)C[C@@]21C [Betamethasone 17-valerate, betamethasone 17-valerate, reference compound] | 100 | 100 | 50 | 34 | 15.0 | 26.6 |  |  |
| C[C@H]1C[C@H]2[C@@H]3CCC4=CC(=O)C=C[C@]4(C)[C@@]3(F)[C@@H](O)C[C@]2(C)[C@@]1(O)C(=O)CO [Betamethasone, betamethasone] |  |  |  |  |  |  | only a small effect | 15.4 ± 1.4 |
| CSCC[C@H](NC=O)C(=O)SCC(=O)[C@@]1(O)[C@@H](C)C[C@H]2[C@@H]3CCC4=CC(=O)C=C[C@]4(C)[C@@]3(F)[C@@H](O)C[C@@]21C [Compound No. 1, 9-Fluoro-21-[2-(formylamino)-4-methylthio-1-oxobutylthio]-11β,17-dihydroxy-16β-methylpregna-1,4-diene-3,20-dione] | 100 | 100 | 100 | 44 | 10.7 | 47.7 |  | 23.4 ± 0.3 |
| CSCC[C@H](NC=O)C(=O)SCC(=O)[C@@]12OC(C)(C)O[C@@H]1C[C@H]1[C@@H]3CCC4=CC(=O)C=C[C@]4(C)[C@@]3(F)[C@@H](O)C[C@@]12C [Compound No. 3, 9-Fluoro-21-[2-(formylamino)-4-methylthio-1-oxobutylthio]-11β-hydroxy-16α,17α-isopropylidenedioxypregna-1,4-diene-3,20-dione] |  |  |  | 74 |  |  |  |  |
| CSCCC(NC=O)C(=O)SCC(=O)[C@@]1(O)[C@H](C)C[C@H]2[C@@H]3CC(F)C4=CC(=O)C=C[C@]4(C)[C@@]3(F)[C@H](O)C[C@@]21C (stereo partly drawn) [Compound No. 5, 6,9-Difluoro-21-[2-(formylamino)-4-methylthio-1-oxobutylthio]-11α,17-dihydroxy-16α-methylpregna-1,4-diene-3,20-dione] |  |  |  | 74 |  |  |  |  |
| CCCCC(=O)O[C@]1(C(=O)CSC(=O)[C@H](CCSC)NC=O)[C@@H](C)C[C@H]2[C@@H]3CCC4=CC(=O)C=C[C@]4(C)[C@@]3(F)[C@@H](O)C[C@@]21C [Compound No. 6, 9-Fluoro-21-[2-(formylamino)-4-methylthio-1-oxobutylthio]-11β-hydroxy-16β-methyl-17-(1-oxopentyloxy)-pregna-1,4-diene-3,20-dione] |  |  |  |  | 7.4 | 63.9 |  |  |
| C[C@]12CCC(=O)C=C1CC[C@@H]1[C@@H]2[C@@H](O)C[C@@]2(C)[C@H]1CC[C@]2(O)C(=O)CO [Hydrocortisone, hydrocortisone, reference compound] |  |  |  |  |  |  |  | 20.8 ± 2.1 |
